This is an account of results in patent US4067899A, “Terpenophenols” (Societe Anonyme dite: MAR-PHA, Societe d'Etude et …, priority 1974, dated 1978).

Holding throughout (experiment): Bacteriostatic activity by the method of streaks in gelose media, minimum inhibitory concentration
Type in all cases: cell-based

The test system of experiment [1] is Streptococcus Pyrogenes. As to conditions: streaks from 24 hour old culture, gram + ve, read-out: Minimal inhibitory concentration Streptococcus Pyrogenes. As for the experimental part: (§1) The bacteriostatic activity of the phenols according to the invention has been evaluated by the method of streaks in gelose media. This method comprises making increasing dilutions of the product to be tested, in nutritive geloses poured into a Petri dish.
(§2) The various bacteria to be studied are then introduced onto the geloses in parallel streaks by means of a platinum loop which has been immersed in a 24 hour old culture of each bacteria.
(§3) The activity of these compounds has been studied vis a vis two gram + ve bacteria, namely Staphylococcus Aureus and Streptococcus Pyrogenes.

The subject of experiment [2] is Staphylococcus Aureus. Particulars: streaks from 24 hour old culture, gram + ve, read-out: Minimal inhibitory concentration Staphylococcus Aureus. As for the experimental part: as §1, §2, §3
For experiment [3], the system named is Escherichia Coli. Particulars: streaks from 24 hour old culture, read-out: Minimal inhibitory concentration Escherichia Coli. On the procedure: as §1, §2

Values after ≈ are worked out from the molar mass of the structure shown.

Turning to `Cc1cc(O)c(C2CC3CCC2(C)C3(C)C)cc1[N+](=O)[O-]` (centres unmarked) [Example 1, 2-isobornyl-4-nitro-5-methylphenol], the MIC came to 7.5 µg/mL in experiment [1] and 1 µg/mL in experiment [2].

For the molecule `Cc1cc(O)c(C2CC3CCC2(C)C3(C)C)cc1Br` (centres unmarked) [Example 2, 2-isobornyl-4-bromo-5-methyl-phenol], the MIC is 15 µg/mL in experiment [1] and 5 µg/mL in experiment [2].

For `COc1ccc(O)cc1C1CC2CCC1(C)C2(C)C` (centres unmarked) [Example 14, 3-isobornyl-4-methoxyphenol], the figures for the MIC in experiment [1] and in experiment [2] were 10 µg/mL and 5 µg/mL, respectively.

`Cc1cc(O)c(C2CC3CCC2C3)cc1Br` (stereo not drawn) [Example 9, 2-exo-norbornyl-4-bromo-5-methylphenol]: the MIC came out at 20 µg/mL (≈ 71.1 µM) in experiment [3] and 5 µg/mL in experiment [2].

`Cc1cc(O)c(C2CC3CCC2(C)C3(C)C)cc1C#N` (centres unmarked) [Example 15, 2-isobornyl-4-cyano-5-methylphenol]: the MIC in experiment [1] came to 10 µg/mL; in experiment [2], 5 µg/mL.

On to `Oc1ccc(Cl)cc1C1CC2CCC1C2` (stereo not drawn) [Example 10, 2-exo-norbornyl-4-chlorophenol], for which the results for the MIC in experiment [3] and in experiment [2] were 10 µg/mL (≈ 44.9 µM) and 5 µg/mL, respectively.

On to `Oc1ccc(Br)cc1C1CC2CCC1C2` (stereo not drawn) [Example 8, 2-exo-norbornyl-4-bromophenol], for which the results for the MIC in experiment [3], in experiment [1] and in experiment [2] were 7.5 µg/mL (≈ 28.1 µM), 20 µg/mL and 7.5 µg/mL, respectively.

Consider `CC1(C)C2CCC1(C)C(c1cc([N+](=O)[O-])ccc1O)C2` (centres unmarked) [Example 3, 2-isobornyl-4-nitrophenol], for which the MIC in experiment [1] was 5 µg/mL; in experiment [2] it was 1 µg/mL.

Take `Cc1cc(O)c(C2CC3CCC2(C)C3(C)C)cc1Cl` (centres unmarked) [Example 7, 2-isobornyl-4-chloro-5-methylphenol]: the MIC in experiment [1] is 5 µg/mL; in experiment [2] it was 2.5 µg/mL.

As to `O=[N+]([O-])c1ccc(O)c(C2CC3CCC2C3)c1` (stereo not drawn) [Example 5, 2-exo-norbornyl-4-nitrophenol], the MIC in experiment [1] was 10 µg/mL; in experiment [2] it was 5 µg/mL.

Take `CC1(C)C2CCC1(C)C(c1cc(Br)ccc1O)C2` (centres unmarked) [Example 4, 2-isobornyl-4-bromophenol]: the MIC in experiment [1] is 30 µg/mL; in experiment [2] it was 2 µg/mL.

With `COc1cc(C)c(O)cc1C1CC2CCC1(C)C2(C)C` (centres unmarked) [Example 12, 2-methyl-4-methoxy-5-isobornyl phenol], in experiment [2], the MIC came to 5 µg/mL.

With `CC1(C)C2CCC1(C)C(c1cc(C#N)ccc1O)C2` (centres unmarked) [Example 16, 2-isobornyl-4-cyano phenol], the MIC stood at 7.5 µg/mL in experiment [1] and 5 µg/mL in experiment [2].

For `CC1(C)C2CCC1(C)C(c1cc(Cl)ccc1O)C2` (centres unmarked) [Example 11, 2-isobornyl-4-chlorophenol], the MIC in experiment [1] amounted to 10 µg/mL; in experiment [2], 2.5 µg/mL.

With `Cc1ccc(O)c(C2CC3CC2C(C)C3(C)C)c1` (centres unmarked) [Example 13, 2-isocamphyl-4-methylphenol], the MIC stood at 20 µg/mL in experiment [1] and 5 µg/mL in experiment [2].

Regarding `CC1C2CC(CC2c2cc(Br)ccc2O)C1(C)C` (centres unmarked) [Example 6, 2-isocamphyl-4-bromophenol], the MIC in experiment [1] amounted to 5 µg/mL; in experiment [2], 2.5 µg/mL.
